Molecular target: BRAF^V600E protein (Homo sapiens, UniProt P15056, V600E)
Experiment: HiBiT cellular BRAF V600E degradation assay
Type: cell-based
Conditions: 24 h incubation; for DC50: A375.10 cells (HiBiT tag knocked in at N-terminal of BRAF V600E), concentration at which 50% of total cellular BRAF V600E is degraded; for Emax: A375.10 cells, Emax = amount of residual protein remaining in the cell after compound treatment, read-out: HiBit 24 h Emax

BRAF^V600E protein, sequence (P15056 whole entry V600E): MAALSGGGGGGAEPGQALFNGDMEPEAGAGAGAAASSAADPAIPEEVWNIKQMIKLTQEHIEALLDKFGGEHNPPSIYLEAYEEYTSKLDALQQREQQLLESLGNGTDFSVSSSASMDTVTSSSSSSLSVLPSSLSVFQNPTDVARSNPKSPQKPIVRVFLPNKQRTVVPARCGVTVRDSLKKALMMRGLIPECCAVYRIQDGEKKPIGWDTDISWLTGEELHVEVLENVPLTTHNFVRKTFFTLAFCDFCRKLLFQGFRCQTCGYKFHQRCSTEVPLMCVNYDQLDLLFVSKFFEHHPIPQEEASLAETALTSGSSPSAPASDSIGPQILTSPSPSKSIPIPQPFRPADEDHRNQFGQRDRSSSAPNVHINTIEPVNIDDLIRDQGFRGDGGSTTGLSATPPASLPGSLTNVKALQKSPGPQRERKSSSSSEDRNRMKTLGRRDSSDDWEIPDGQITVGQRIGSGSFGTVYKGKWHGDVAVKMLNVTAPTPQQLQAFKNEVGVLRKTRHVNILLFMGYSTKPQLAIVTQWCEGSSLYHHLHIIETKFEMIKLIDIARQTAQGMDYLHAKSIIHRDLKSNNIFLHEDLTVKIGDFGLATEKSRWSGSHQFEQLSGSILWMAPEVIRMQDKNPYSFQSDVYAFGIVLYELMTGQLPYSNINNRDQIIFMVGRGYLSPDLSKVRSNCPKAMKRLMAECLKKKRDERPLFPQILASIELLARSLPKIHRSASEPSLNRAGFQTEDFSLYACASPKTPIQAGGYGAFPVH

Structure (SMILES)	DC50	Emax
CCN(C)S(=O)(=O)Nc1ccc(F)c(C(=O)c2c[nH]c3ncc(-c4cnc(N5CCN(C(=O)CC6(O)CCN(c7ccc(NC8CCC(=O)NC8=O)cc7F)C6)CC5)nc4)cc23)c1F (centres unmarked) [Example 51, 5-[2-[4-[2-[1-[4-[(2,6-dioxo-3-piperidyl)amino]-2-fluoro-phenyl]-3-hydroxy-pyrrolidin-3-yl]acetyl]piperazin-1-yl]pyrimidin-5-yl]-3-[3-[[ethyl(methyl)sulfamoyl]amino]-2,6-difluoro-benzoyl]-1H-pyrrolo[2,3-b]pyridine]	5.51 nM	6.09%
CCN(C)S(=O)(=O)Nc1ccc(F)c(C(=O)c2c[nH]c3ncc(-c4ccc(N5CCN(C(=O)CN6Cc7ccc(NC8CCC(=O)NC8=O)cc7C6)CC5)nc4)cc23)c1F (centres unmarked) [Example A37, 5-[6-[4-[2-[5-[(2,6-Dioxopiperidin-3-yl)amino]-1,3-dihydroisoindol-2-yl]acetyl]piperazin-1-yl]pyridin-3-yl]-3-[3-[[ethyl(methyl)sulfamoyl]amino]-2,6-difluorobenzoyl]-1H-pyrrolo[2,3-b]pyridine]	14.6 nM	20.6%
CCN(C)S(=O)(=O)Nc1ccc(F)c(C(=O)c2c[nH]c3ncc(-c4ccc(N5CCN(C(=O)CC6(O)CCN(c7ccc(NC8CCC(=O)NC8=O)cn7)CC6)CC5)cc4)cc23)c1F (centres unmarked) [Example 88, 5-[4-[4-[2-[1-[5-[(2,6-dioxo-3-piperidyl)amino]-2-pyridyl]-4-hydroxy-4-piperidyl]acetyl]piperazin-1-yl]phenyl]-3-[3-[[ethyl(methyl)sulfamoyl]amino]-2,6-difluoro-benzoyl]-1H-pyrrolo[2,3-b]pyridine]	15.7 nM	22.2%
CCN(C)S(=O)(=O)Nc1cccc(C(=O)c2c[nH]c3ncc(-c4ccc(N5CCN(C(=O)CC6(O)CCN(c7ccc(NC8CCC(=O)NC8=O)cc7)CC6)CC5)cc4)cc23)c1F (centres unmarked) [Example 116, 5-[4-[4-[2-[1-[4-[(2,6-dioxo-3-piperidyl)amino]phenyl]-4-hydroxy-4-piperidyl]acetyl]piperazin-1-yl]phenyl]-3-[3-[[ethyl(methyl)sulfamoyl]amino]-2-fluoro-benzoyl]-1H-pyrrolo[2,3-b]pyridine]	5.32 nM	13.4%
CCN(C)S(=O)(=O)Nc1ccc(F)c(C(=O)c2c[nH]c3ncc(-c4cnc(N5CCC(n6cc7c(n6)CCN(c6ccc(NC8CCC(=O)NC8=O)cc6)C7)CC5)nc4)cc23)c1F (centres unmarked) [Example 152, 5-[4-[(2,6-dioxo-3-piperidyl)amino]phenyl]-2-[1-[5-[3-[3-[[ethyl(methyl)sulfamoyl]amino]-2,6-difluoro-benzoyl]-1H-pyrrolo[2,3-b]pyridin-5-yl]pyrimidin-2-yl]-4-piperidyl]-6,7-dihydro-4H-pyrazolo[4,3-c]pyridine]	16.6 nM	11.9%
CCN(C)S(=O)(=O)Nc1ccc(F)c(C(=O)c2c[nH]c3ncc(-c4ccc(CN5CCN(C(=O)CN6Cc7ccc(NC8CCC(=O)NC8=O)cc7C6)CC5)nc4)cc23)c1F (centres unmarked) [Example A38, 5-[6-[[4-[2-[5-[(2,6-Dioxopiperidin-3-yl)amino]-1,3-dihydroisoindol-2-yl]acetyl]piperazin-1-yl]methyl]pyridin-3-yl]-3-[3-[[ethyl(methyl)sulfamoyl]amino]-2,6-difluorobenzoyl]-1H-pyrrolo[2,3-b]pyridine]	47 nM	20%
CCN(C)S(=O)(=O)Nc1ccc(F)c(C(=O)c2c[nH]c3ncc(-c4ccc(N5CCN(C(=O)CN6CCC(c7ccc(NC8CCC(=O)NC8=O)cc7)CC6)CC5)nc4)cc23)c1F (centres unmarked) [Example A8, 5-[6-[4-[2-[4-[4-[(2,6-Dioxopiperidin-3-yl)amino]phenyl]piperidin-1-yl]acetyl]piperazin-1-yl]pyridin-3-yl]-3-[3-[[ethyl(methyl)sulfamoyl]amino]-2,6-difluorobenzoyl]-1H-pyrrolo[2,3-b]pyridine]	8.18 nM	9.42%
CCN(C)S(=O)(=O)Nc1ccc(F)c(C(=O)c2c[nH]c3ncc(-c4ccc(N5CCN(C(=O)CCCN6CCC(c7ccc(OC8CCC(=O)NC8=O)cc7)CC6)CC5)nc4)cc23)c1F (centres unmarked) [Example A2, 5-[6-[4-[4-[4-[4-(2,6-Dioxopiperidin-3-yl)oxyphenyl]piperidin-1-yl]butanoyl]piperazin-1-yl]pyridin-3-yl]-3-[3-[[ethyl(methyl)sulfamoyl]amino]-2,6-difluorobenzoyl]-1H-pyrrolo[2,3-b]pyridine]	66 nM	22%
CCN(C)S(=O)(=O)Nc1ccc(F)c(C(=O)c2c[nH]c3ncc(-c4ccc(N5CCN(C(=O)CN6CCC(c7ccc(C8CCC(=O)NC8=O)cc7)CC6)CC5)nc4)cc23)c1F (centres unmarked) [Example A82, 5-[6-[4-[2-[4-[4-(2,6-Dioxopiperidin-3-yl)phenyl]piperidin-1-yl]acetyl]piperazin-1-yl]pyridin-3-yl]-3-[3-[[ethyl(methyl)sulfamoyl]amino]-2,6-difluorobenzoyl]-1H-pyrrolo[2,3-b]pyridine]	7.65 nM	9.6%
O=C1CCC(Nc2ccc(C3CCN(CC(=O)N4CC5(C4)CN(c4ncc(-c6cnc7[nH]cc(C(=O)c8c(F)ccc(NS(=O)(=O)N9CCCC9)c8F)c7c6)cn4)C5)CC3)cc2)C(=O)N1 (centres unmarked) [Example A120, N-[3-[5-[2-[2-[2-[4-[4-[(2,6-Dioxopiperidin-3-yl)amino]phenyl]piperidin-1-yl]acetyl]-2,6-diazaspiro[3.3]heptan-6-yl]pyrimidin-5-yl]-1H-pyrrolo[2,3-b]pyridine-3-carbonyl]-2,4-difluorophenyl]pyrrolidine-1-sulfonamide]	8 nM	8%
CCN(C)S(=O)(=O)Nc1cccc(C(=O)c2c[nH]c3ncc(-c4ccc(N5CCN(C(=O)CC6(O)CCN(c7ncc(NC8CCC(=O)NC8=O)cc7F)CC6)CC5)cc4)cc23)c1F (centres unmarked) [Example 120, 5-[4-[4-[2-[1-[5-[(2,6-dioxo-3-piperidyl)amino]-3-fluoro-2-pyridyl]-4-hydroxy-4-piperidyl]acetyl]piperazin-1-yl]phenyl]-3-[3-[[ethyl(methyl)sulfamoyl]amino]-2-fluoro-benzoyl]-1H-pyrrolo[2,3-b]pyridine]	2.87 nM	9.99%
CCN(C)S(=O)(=O)Nc1ccc(F)c(C(=O)c2c[nH]c3ncc(-c4cnc(N5CCC(NCC(=O)N6CCC(c7ccc(NC8CCC(=O)NC8=O)cn7)CC6)CC5)nc4)cc23)c1F (centres unmarked) [Example A93, 5-[2-[4-[[2-[4-[5-[(2,6-Dioxopiperidin-3-yl)amino]pyridin-2-yl]piperidin-1-yl]-2-oxoethyl]amino]piperidin-1-yl]pyrimidin-5-yl]-3-[3-[[ethyl(methyl)sulfamoyl]amino]-2,6-difluorobenzoyl]-1H-pyrrolo[2,3-b]pyridine;formic acid]	16 nM	14%
CCN(C)S(=O)(=O)Nc1ccc(F)c(C(=O)c2c[nH]c3ncc(-c4cnc(N5CCN(C(=O)Cc6ccc(N7CCN(C8CCC(=O)NC8=O)C(=O)C7)cc6)CC5)nc4)cc23)c1F (centres unmarked) [Example 50, 5-[2-[4-[2-[4-[4-(2,6-dioxo-3-piperidyl)-3-oxo-piperazin-1-yl]phenyl]acetyl]piperazin-1-yl]pyrimidin-5-yl]-3-[3-[[ethyl(methyl)sulfamoyl]amino]-2,6-difluoro-benzoyl]-1H-pyrrolo[2,3-b]pyridine]	4.57 nM	7.42%

Source: patent US12559492B2, “BRAF degraders” (C4 Therapeutics, Inc., priority 2020, dated 2026)
